Columns and labels:
Assay type in all cases: cell-based
human TLR8 = biological target: T1, human TLR8 (Homo sapiens, UniProt Q9NR97); assay: TLR8 inhibition reporter assay (HEK-Blue SEAP reporter, R848 stimulation); conditions: HEK-Blue cells overexpressing human TLR8, SEAP reporter, R848 15.9 μM, 22 hour incubation
T1 construct: host or cells: HEK-Blue cells
T1 sequence (Q9NR97 27-1041): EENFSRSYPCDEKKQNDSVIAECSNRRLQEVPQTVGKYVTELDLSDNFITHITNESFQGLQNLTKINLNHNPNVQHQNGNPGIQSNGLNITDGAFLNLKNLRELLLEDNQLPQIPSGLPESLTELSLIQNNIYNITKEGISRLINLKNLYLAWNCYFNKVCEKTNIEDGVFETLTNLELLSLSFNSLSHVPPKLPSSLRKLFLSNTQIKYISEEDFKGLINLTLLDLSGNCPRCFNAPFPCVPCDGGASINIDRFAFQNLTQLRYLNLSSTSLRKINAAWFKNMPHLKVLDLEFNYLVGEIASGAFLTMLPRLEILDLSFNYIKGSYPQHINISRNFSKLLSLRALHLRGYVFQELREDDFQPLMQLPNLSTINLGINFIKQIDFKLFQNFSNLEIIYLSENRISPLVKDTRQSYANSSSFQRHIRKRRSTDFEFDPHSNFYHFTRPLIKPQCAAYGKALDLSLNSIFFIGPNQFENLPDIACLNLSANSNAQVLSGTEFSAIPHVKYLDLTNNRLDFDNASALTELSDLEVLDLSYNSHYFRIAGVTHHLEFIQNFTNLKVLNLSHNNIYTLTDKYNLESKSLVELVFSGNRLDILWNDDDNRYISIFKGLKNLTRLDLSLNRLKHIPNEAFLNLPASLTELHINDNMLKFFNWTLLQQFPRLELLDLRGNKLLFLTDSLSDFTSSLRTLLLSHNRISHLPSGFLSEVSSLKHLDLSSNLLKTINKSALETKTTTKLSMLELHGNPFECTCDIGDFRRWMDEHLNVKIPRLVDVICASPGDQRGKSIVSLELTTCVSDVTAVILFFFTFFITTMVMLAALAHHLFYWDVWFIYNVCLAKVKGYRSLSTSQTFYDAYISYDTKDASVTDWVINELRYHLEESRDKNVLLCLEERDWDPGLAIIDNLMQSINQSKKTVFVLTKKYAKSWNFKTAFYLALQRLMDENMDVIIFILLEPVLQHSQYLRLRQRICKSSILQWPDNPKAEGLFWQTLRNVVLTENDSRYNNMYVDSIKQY
Summary of the method: (§1)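 Agonists used: gardiquimod 7.5 μM (TLR7), R848 15.9 μM (TLR8), ODN2006 5 nM (TLR9), added after 30 min room-temperature compound pre-treatment (0.05 nM–50 μM) of receptor-overexpressing HEK-Blue cells. SEAP reporter (NF-κB/AP-1 driven) read after 22 h at 37 °C; inhibition scaled between agonist+DMSO and reference-inhibitor wells.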

human TLR7 = biological target: T2, human TLR7 (Homo sapiens, UniProt Q9NYK1); assay: TLR7 inhibition reporter assay (HEK-Blue SEAP reporter, gardiquimod stimulation); conditions: HEK-Blue cells overexpressing human TLR7, SEAP reporter, gardiquimod 7.5 μM, 22 hour incubation
T2 construct: host or cells: HEK-Blue cells
T2 sequence (Q9NYK1 27-1049): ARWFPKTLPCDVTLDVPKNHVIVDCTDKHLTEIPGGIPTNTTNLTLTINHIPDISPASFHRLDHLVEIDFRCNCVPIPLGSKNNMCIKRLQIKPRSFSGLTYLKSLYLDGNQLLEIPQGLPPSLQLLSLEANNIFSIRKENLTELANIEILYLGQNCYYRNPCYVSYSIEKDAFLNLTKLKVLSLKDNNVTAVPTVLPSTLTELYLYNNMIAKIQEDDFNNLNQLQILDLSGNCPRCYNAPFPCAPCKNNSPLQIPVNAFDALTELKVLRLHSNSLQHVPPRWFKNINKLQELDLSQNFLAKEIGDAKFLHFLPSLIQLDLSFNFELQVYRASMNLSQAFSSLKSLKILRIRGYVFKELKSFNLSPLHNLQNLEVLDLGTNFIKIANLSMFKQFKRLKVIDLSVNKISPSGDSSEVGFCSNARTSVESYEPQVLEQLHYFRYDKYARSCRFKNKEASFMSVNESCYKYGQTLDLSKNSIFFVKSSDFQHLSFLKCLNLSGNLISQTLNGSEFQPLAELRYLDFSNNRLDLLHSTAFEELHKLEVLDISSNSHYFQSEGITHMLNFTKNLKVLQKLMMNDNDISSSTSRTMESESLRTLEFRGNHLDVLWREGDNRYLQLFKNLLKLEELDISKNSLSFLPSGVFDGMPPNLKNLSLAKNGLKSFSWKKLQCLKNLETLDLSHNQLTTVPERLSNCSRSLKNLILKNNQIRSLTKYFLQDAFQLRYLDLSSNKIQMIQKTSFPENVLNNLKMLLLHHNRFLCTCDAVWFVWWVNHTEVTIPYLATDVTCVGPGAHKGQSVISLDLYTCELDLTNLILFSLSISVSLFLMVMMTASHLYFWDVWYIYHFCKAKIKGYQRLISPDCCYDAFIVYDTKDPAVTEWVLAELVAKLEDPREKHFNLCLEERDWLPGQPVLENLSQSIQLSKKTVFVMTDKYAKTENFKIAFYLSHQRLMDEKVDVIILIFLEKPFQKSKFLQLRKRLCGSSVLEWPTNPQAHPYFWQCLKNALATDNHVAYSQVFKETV
Summary of the method: as §1

human TLR9 = biological target: T3, human TLR9 (Homo sapiens, UniProt Q9NR96); assay: TLR9 inhibition reporter assay (HEK-Blue SEAP reporter, ODN2006 stimulation); conditions: HEK-Blue cells overexpressing human TLR9, SEAP reporter, ODN2006 5 nM, 22 hour incubation
T3 construct: host or cells: HEK-Blue cells
T3 sequence (Q9NR96 26-1032): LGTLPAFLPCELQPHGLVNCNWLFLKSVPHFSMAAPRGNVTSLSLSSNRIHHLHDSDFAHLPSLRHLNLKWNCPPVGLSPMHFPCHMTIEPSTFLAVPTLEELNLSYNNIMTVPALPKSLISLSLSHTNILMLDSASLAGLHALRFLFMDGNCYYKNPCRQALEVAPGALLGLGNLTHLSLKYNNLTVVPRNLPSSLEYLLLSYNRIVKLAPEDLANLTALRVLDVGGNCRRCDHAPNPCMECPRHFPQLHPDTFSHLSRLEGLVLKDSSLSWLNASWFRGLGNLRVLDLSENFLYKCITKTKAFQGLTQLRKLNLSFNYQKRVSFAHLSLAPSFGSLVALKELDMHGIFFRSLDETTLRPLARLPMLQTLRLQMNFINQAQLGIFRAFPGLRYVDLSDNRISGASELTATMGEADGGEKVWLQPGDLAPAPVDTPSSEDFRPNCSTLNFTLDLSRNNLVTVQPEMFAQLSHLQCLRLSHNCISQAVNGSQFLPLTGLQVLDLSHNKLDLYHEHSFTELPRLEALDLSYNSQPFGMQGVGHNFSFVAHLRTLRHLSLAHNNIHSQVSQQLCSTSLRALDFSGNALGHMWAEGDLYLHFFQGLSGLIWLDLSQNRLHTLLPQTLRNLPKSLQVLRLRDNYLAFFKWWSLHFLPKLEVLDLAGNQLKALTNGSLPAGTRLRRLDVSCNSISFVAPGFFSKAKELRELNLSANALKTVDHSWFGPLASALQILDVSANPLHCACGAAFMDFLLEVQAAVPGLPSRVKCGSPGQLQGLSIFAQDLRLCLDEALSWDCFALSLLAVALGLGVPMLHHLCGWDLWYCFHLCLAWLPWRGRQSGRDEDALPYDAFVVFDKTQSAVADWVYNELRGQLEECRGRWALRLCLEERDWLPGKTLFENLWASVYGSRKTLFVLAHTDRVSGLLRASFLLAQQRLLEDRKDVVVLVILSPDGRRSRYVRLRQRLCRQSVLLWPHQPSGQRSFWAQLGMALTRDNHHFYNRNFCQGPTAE
Summary of the method: as §1

| IC50 (human TLR8) | IC50 (human TLR7) | IC50 (human TLR9) | Structure (SMILES) |
| --- | --- | --- | --- |
| 0.0056 µM | 0.005 µM | 0.289 µM | COc1cc(-c2[nH]c3ccc(C4CCN(C(=O)CN(C)C)CC4)cc3c2C(C)C)cn(C)c1=O [Example 286, 5-(5-(1-(dimethylglycyl)piperidin-4-yl)-3-isopropyl-1H-indol-2-yl)-3-methoxy-1-methylpyridin-2(1H)-one] |
| 0.0086 µM | 0.0078 µM | 18.2 µM | COCCn1cc(-c2[nH]c3ccc(C4CCN(C(=O)CN(C)C)CC4)cc3c2C(C)C)cc(C)c1=O [Example 287, 5-(5-(1-(dimethylglycyl)piperidin-4-yl)-3-isopropyl-1H-indol-2-yl)-1-(2-methoxyethyl)-3-methylpyridin-2(1H)-one] |
| 0.0123 µM | 0.0059 µM | 5.28 µM | Cc1cc(-c2[nH]c3ccc(C4CCN(C(=O)[C@@H]5C[C@@H](O)CN5C)CC4)cc3c2C(C)C)cn(C)c1=O [Example 289, 5-(5-(1-((2S,4R)-4-hydroxy-1-methylpyrrolidine-2-carbonyl)piperidin-4-yl)-3-isopropyl-1H-indol-2-yl)-1,3-dimethylpyridin-2(1H)-one] |
| 0.0112 µM | 0.0123 µM | 1.42 µM | Cc1cc(-c2[nH]c3ccc(C4CCN(C(=O)[C@H]5NCC[C@@H]5O)CC4)cc3c2C(C)C)cn(C)c1=O [Example 291, 5-(5-(1-((2S,3S)-3-hydroxypyrrolidine-2-carbonyl)piperidin-4-yl)-3-isopropyl-1H-indol-2-yl)-1,3-dimethylpyridin-2(1H)-one] |
| 0.0169 µM | 0.0125 µM | 3.32 µM | Cc1cc(-c2[nH]c3ccc(C4CCN(C(=O)CN(C)C)CC4)cc3c2C(C)C)nn(C)c1=O [Example 294, 6-(5-(1-(dimethylglycyl)piperidin-4-yl)-3-isopropyl-1H-indol-2-yl)-2,4-dimethylpyridazin-3(2H)-one] |
| 0.0619 µM | 0.114 µM | 9.69 µM | Cc1nc(-c2[nH]c3ccc(C4CCN(C(=O)CN(C)C)CC4)cc3c2C(C)C)cn(C)c1=O [Example 295, 5-(5-(1-(dimethylglycyl)piperidin-4-yl)-3-isopropyl-1H-indol-2-yl)-1,3-dimethylpyrazin-2(1H)-one] |
| 0.003 µM | 0.0011 µM | 4.31 µM | Cc1cc(-c2[nH]c3ccc(C4CCN(C(=O)C(C)(C)N)CC4)cc3c2C(C)C)cn(C)c1=O [Example 296, 5-(5-(1-(2-amino-2-methylpropanoyl)piperidin-4-yl)-3-isopropyl-1H-indol-2-yl)-1,3-dimethylpyridin-2(1H)-one] |
| 0.0055 µM | 0.0044 µM | 3.99 µM | CN[C@@H](C)C(=O)N1CCC(c2ccc3[nH]c(-c4cc(C)c(=O)n(C)c4)c(C(C)C)c3c2)CC1 [Example 297, 5-(3-isopropyl-5-(1-(methyl-L-alanyl)piperidin-4-yl)-1H-indol-2-yl)-1,3-dimethylpyridin-2(1H)-one] |
| 0.148 µM | 0.169 µM | 21.3 µM | CNC(C)(C)C(=O)N1CCC(c2ccc3[nH]c(-c4cc(C)c(=O)n(C)c4)c(C(C)C)c3c2)CC1 [Example 298, 5-(3-isopropyl-5-(1-(2-methyl-2-(methylamino)propanoyl)piperidin-4-yl)-1H-indol-2-yl)-1,3-dimethylpyridin-2(1H)-one] |
| 0.0043 µM | 0.0037 µM | 0.504 µM | CN[C@H](C)C(=O)N1CCC(c2ccc3[nH]c(-c4cc(C)c(=O)n(C)c4)c(C(C)C)c3c2)CC1 [Example 299, 5-(3-isopropyl-5-(1-(methyl-D-alanyl)piperidin-4-yl)-1H-indol-2-yl)-1,3-dimethylpyridin-2(1H)-one] |
| 0.0425 µM | 0.0426 µM | ≥ 50 µM | Cc1cc(-c2[nH]c3ccc(C4CCN(C(=O)CN5CCCC5=O)CC4)cc3c2C(C)C)cn(C)c1=O [Example 300, 5-(3-isopropyl-5-(1-(2-(2-oxopyrrolidin-1-yl)acetyl)piperidin-4-yl)-1H-indol-2-yl)-1,3-dimethylpyridin-2(1H)-one] |
| 0.0365 µM | 0.0257 µM | 1.83 µM | CC(C)c1c(-c2ccc(=O)n(C)c2)[nH]c2ccc(C3CCN(C(=O)CN(C)C)CC3)cc12 [Example 301, 5-(5-(1-(dimethylglycyl)piperidin-4-yl)-3-isopropyl-1H-indol-2-yl)-1-methylpyridin-2(1H)-one] |
| 0.214 µM | 0.0204 µM | ≥ 50 µM | Cc1c(-c2[nH]c3ccc(C4CCN(C(=O)C(F)(F)F)CC4)cc3c2C(C)C)cn(C)c(=O)c1Cl [Example 302, 3-chloro-5-(3-isopropyl-5-(1-(2,2,2-trifluoroacetyl)piperidin-4-yl)-1H-indol-2-yl)-1,4-dimethylpyridin-2(1H)-one] |
| 0.0499 µM | 0.0096 µM | ≥ 50 µM | Cc1cc(-c2[nH]c3ccc(C4CCN(C(=O)CC(C)(C)O)CC4)cc3c2C(C)C)cn(C)c1=O [Example 303, 5-(5-(1-(3-hydroxy-3-methylbutanoyl)piperidin-4-yl)-3-isopropyl-1H-indol-2-yl)-1,3-dimethylpyridin-2(1H)-one] |
